Experimental data taken from patent US20180238860A1, “INDIVIDUAL METHOD PREDICTIVE OF THE DNA-BREAKING GENOTOXIC EFFECTS OF CHEMICAL OR BIOCHEMICAL AGENTS” (priority 2015, published 2018).

Key:
Assay type in all cases: cell-based, human
[1] = tested on: HMEC cells; test: Micronuclei per 100 cells 24 h after contacting, Table 4 lower part (HMEC); settings: line cell blank (below Hasp)
Procedure: (§1) In one embodiment, on receipt, the tissue sample (typically the biopsy) is established in the form of an amplifiable cell line without a viral or chemical transformation agent according to an ancillary procedure well known to culture laboratories, as underlined by the publication of Elkind et al. “The radiobiology of cultured mammalian cell”, Gordon and Breach (1967). Once the number of cells is sufficient (typically after 1 to 3 weeks), the first experiments are carried out using the process according to the invention. A cell sample is prepared: The cells are inoculated on glass coverslips in Petri dishes. A portion of these coverslips are contaminated with metals or pesticides or any other DNA-breaking chemical or biochemical agent at different concentrations. A further portion is not contaminated; it represents the spontaneous state. During contamination, the cells remain in the culture incubator at 37° C.
(§2) the cells are fixed in 3% paraformaldehyde and 2% sucrose for 15 minutes at ambient temperature and permeabilized in 20 mM HEPES buffer solution (4-(2-hydroxyethyl)-1-piperazine ethane sulfonic acid) at pH 7.4, 50 mM NaCl, 3 mM MgCl2, 300 mM sucrose, 0.5% Triton X-100 (a non-ionic surfactant having the formula t-Oct-C6H4-(OCH2CH2)×OH where x=9-10, CAS No. 9002-93-1, supplied for example by Sigma Aldrich) for 3 minutes. The glass coverslips are then washed in phosphate buffer saline (known as the acronym PBS) before immunological staining. The incubation took place for 40 min at 37° C. in PBS supplemented with 2% bovine serum albumin (known as the acronym BSA or fraction V, supplied for example by Sigma Aldrich) and was followed by a wash with PBS. Anti-pH2AX primary antibodies are used at a concentration of 1:800. The incubations with anti-mouse FITC or anti-rabbit TRITC secondary antibodies (1:100, supplied by Sigma Aldrich) were performed at 37° C. in 2% BSA for 20 minutes. Glass coverslips were treated with Vectashield™ containing DAPI (4,6-Diamidino-2-phenylindole) to label the nucleus. Staining with DAPI also makes it possible, indirectly, to determine the number of cells in phase G1 (nuclei with homogenous DAPI staining), in phase S (nuclei with numerous pH2AX foci), in phase G2 (nuclei with heterogeneous DAPI staining) and metaphases (visible chromosomes).
(§3) Counterstaining with DAPI (a DNA marker known to those skilled in the art) makes it possible to locate the nucleus to situate the cytoplasmic or nuclear location to quantify the micronuclei, which are complementary cell markers to the data on the foci.
(§4) The tables hereinafter summarize the results of numerous experiments which were carried out as described in the “Detailed description” section above.
(§5) In tables 3 and 4, “pH2AX” corresponds to the mean number of nuclear foci obtained with the marker pH2AX, 24 hours after contacting the cell sample with the chemical agent at the concentration C (NpH2AX(24 h, C)), and where “Micronuclei” corresponds to the mean number of micronuclei observed per 100 cells 24 hours after contacting the cell sample with the chemical agent at the concentration C(NMN(24 h, C)).

[2] = tested on: HMEC cells; test: pH2AX foci 24 h after contacting, Table 4 lower part (HMEC endothelial cells); settings: for pH2AX: line cell blank (below Hasp), 24 hours after contacting
Procedure: as §1
(§6) For the contaminated cells, characteristics are acquired corresponding to the state after an incubation time with the DNA-breaking chemical or biochemical agent. Said characteristics are represented by foci corresponding to the marker pH2AX. The cells on glass coverslips are then fixed, lysed and hybridized. The following procedure, known per se (Bodgi et al, “A single formula to describe radiation-induced protein relocalization: towards a mathematical definition of individual radiosensitivity”, J Theor Biol. 21 p 333:135-45.2013):
as §2
(§7) The results are acquired using these coverslips on an immunofluorescence microscope (Olympus model for example). The reading may be direct (typically by counting the foci on at least 50 cells in G0/G1 for each point) or using dedicated image analysis software, or on an automated microscope; preferably the software or automated microscope methods are calibrated with manual determinations.
as §4, §5

[3] = tested on: Ha (astrocyte cells); test: Micronuclei per 100 cells 24 h after contacting, Ha astrocyte cells
Procedure: as §1, §2, §3, §4, §5
(§8) Table 4 presents a detection of number of pH2AX foci and number of micronuclei 24 hours after contacting control nervous system cell lines Ha (astrocyte cells), Hah (hippocampus astrocyte cells) and Hasp (spinal cord astrocyte cells) with a metallic compound (AlCl3, Cu, CuCl2, CuSO4, Pb(NO3)2, CdCl2, Cd-acetate or Cd-acetate-citrate) according to the concentration of said metallic compound used.

[4] = tested on: Hasp (spinal cord astrocyte cells); test: Micronuclei per 100 cells 24 h after contacting, Hasp
Procedure: as §1, §2, §3, §4, §5, §8

[5] = tested on: Hah (hippocampus astrocyte cells); test: pH2AX foci 24 h after contacting, Hah hippocampus astrocyte cells
Procedure: as §1, §6, §2, §7, §4
(§9) In tables 3 and 4, “pH2AX” corresponds to the mean number of nuclear foci obtained with the marker pH2AX, 24 hours after contacting the cell sample with the chemical agent at the concentration C (NpH2AX(24 h, C)), and where “Micronuclei” corresponds to the mean number of micronuclei observed per 100 cells 24 hours after contacting the cell sample with the chemical agent at the concentration C(NMN(24 h, C)). […]

[6] = tested on: Hah (hippocampus astrocyte cells); test: Micronuclei per 100 cells 24 h after contacting, Hah
Procedure: as §1, §2, §3, §4, §5, §8

[7] = tested on: Hasp (spinal cord astrocyte cells); test: pH2AX foci 24 h after contacting, Hasp spinal cord astrocyte cells
Procedure: as §1, §6, §2, §7, §4, §9

[8] = tested on: Ha (astrocyte cells); test: pH2AX foci 24 h after contacting, Ha astrocyte cells; settings: for pH2AX: Ha, 24 hours after contacting
Procedure: as §1, §6, §2, §7, §4, §9

[9] = tested on: 1BR3 cells; test: Micronuclei per 100 cells 24 h after contacting, 1BR3
Procedure: as §1, §2, §3, §4, §5

[10] = tested on: 1BR3 (control cells); test: pH2AX foci immunofluorescence 24 h after contacting, 1BR3 control fibroblasts; settings: 1BR3, 24 hours after contacting (Table 3)
Procedure: as §1, §6, §2, §7
Commercial 1BR3 and 149 BR control fibroblasts were amplified according to the recommendations of the supplier (SIGMA-ALDRICH) until the number of cells sought was obtained. After obtaining a sufficient number of cells (generally after one to 3 weeks), the first experiments were conducted using the process according to the invention. The cells were inoculated on glass coverslips in Petri dishes.
The acquisition of the results was carried out using these coverslips on an immunofluorescence microscope (Olympus model). The reading was performed directly by counting the foci obtained with the marker pH2AX on at least 50 cells in G0/G1 for each point or using dedicated image analysis software (imageJ). […]

## CC(=O)[O-].CC(=O)[O-].[Cd+2] [Cd-acetate]
[1]; 10 μM
  Micronuclei: 5 per 100 cells
[1]; 30 μM
  Micronuclei: 10 per 100 cells
[1]; 100 μM
  Micronuclei: 10 per 100 cells
[2]; 10 μM
  pH2AX: 5 foci
[2]; 30 μM
  pH2AX: 5.5 foci
[2]; 100 μM
  pH2AX: 7 foci

## [Cl][Al]([Cl])[Cl] [AlCl3]
[3]; 3 μM
  Micronuclei: 10 per 100 cells
[3]; 10 μM
  Micronuclei: 15 per 100 cells
[3]; 30 μM
  Micronuclei: 16.7 per 100 cells
[3]; 100 μM
  Micronuclei: 46.7 per 100 cells
[3]; 300 μM
  Micronuclei: 56.7 per 100 cells
[3]; 1000 μM
  Micronuclei: 70 per 100 cells
[1]; 3 μM
  Micronuclei: 1.75 per 100 cells
[1]; 10 μM
  Micronuclei: 3.75 per 100 cells
[1]; 30 μM
  Micronuclei: 5 per 100 cells
[1]; 100 μM
  Micronuclei: 4.33 per 100 cells
[1]; 300 μM
  Micronuclei: 7.33 per 100 cells
[1]; 1000 μM
  Micronuclei: 11.5 per 100 cells
[4]; 3 μM
  Micronuclei: 2 per 100 cells
[4]; 10 μM
  Micronuclei: 4 per 100 cells
[4]; 30 μM
  Micronuclei: 4 per 100 cells
[4]; 100 μM
  Micronuclei: 7.3 per 100 cells
[4]; 300 μM
  Micronuclei: 8.7 per 100 cells
[4]; 1000 μM
  Micronuclei: 13 per 100 cells
[2]; endothelial cells (HMEC cells), 100 μM
  H2AX foci: 3.7 foci
[2]; 3 μM
  pH2AX: 3.2 foci
[2]; 10 μM
  pH2AX: 3.2 foci
[2]; 30 μM
  pH2AX: 5.7 foci
[2]; 100 μM
  pH2AX: 3.7 foci
[2]; 300 μM
  pH2AX: 4.5 foci
[2]; 1000 μM
  pH2AX: 9.9 foci
[5]; 3 μM
  pH2AX: 0.07 foci
[5]; 10 μM
  pH2AX: 0.68 foci
[5]; 30 μM
  pH2AX: 0.83 foci
[5]; 100 μM
  pH2AX: 1.22 foci
[5]; 300 μM
  pH2AX: 1.77 foci
[5]; 1000 μM
  pH2AX: 2.28 foci
[6]; 3 μM
  Micronuclei: 2 per 100 cells
[6]; 10 μM
  Micronuclei: 2 per 100 cells
[6]; 30 μM
  Micronuclei: 4 per 100 cells
[6]; 100 μM
  Micronuclei: 6 per 100 cells
[6]; 300 μM
  Micronuclei: 20 per 100 cells
[6]; 1000 μM
  Micronuclei: 30 per 100 cells
[7]; 3 μM
  pH2AX: 0.84 foci
[7]; 10 μM
  pH2AX: 0.46 foci
[7]; 30 μM
  pH2AX: 0.74 foci
[7]; 100 μM
  pH2AX: 2.15 foci
[7]; 300 μM
  pH2AX: 1.7 foci
[7]; 1000 μM
  pH2AX: 1.62 foci
[8]; 3 μM
  pH2AX: 0.34 foci
[8]; 10 μM
  pH2AX: 0.88 foci
[8]; 30 μM
  pH2AX: 1.37 foci
[8]; 100 μM
  pH2AX: 2.18 foci
[8]; 300 μM
  pH2AX: 2.96 foci
[8]; 1000 μM
  pH2AX: 6.04 foci
[8]; astrocytes (HA cells) contaminated with 100 μM
  H2AX foci: 2 foci

## [Cl][Cu][Cl] [CuCl2]
[1]; 3 μM
  Micronuclei: 4 per 100 cells
[1]; 10 μM
  Micronuclei: 6.7 per 100 cells
[1]; 30 μM
  Micronuclei: 5.3 per 100 cells
[1]; 100 μM
  Micronuclei: 6.7 per 100 cells
[1]; 300 μM
  Micronuclei: 7.3 per 100 cells
[1]; 1000 μM
  Micronuclei: 4 per 100 cells
[2]; 3 μM
  pH2AX: 1.6 foci
[2]; 10 μM
  pH2AX: 1.9 foci
[2]; 30 μM
  pH2AX: 1.6 foci
[2]; 100 μM
  pH2AX: 1.5 foci
[2]; 300 μM
  pH2AX: 5.3 foci
[2]; 1000 μM
  pH2AX: 21.4 foci

## CCNc1nc(Cl)nc(NC(C)C)n1 [Atrazine]
[9]; 0.01 μM
  Micronuclei: 5 per 100 cells
[9]; 0.1 μM
  Micronuclei: 6 per 100 cells
[9]; 1 μM
  Micronuclei: 13.5 per 100 cells
[9]; 10 μM
  Micronuclei: 15 per 100 cells
[9]; 20 μM
  Micronuclei: 40 per 100 cells
[10]; 0.01 μM
  pH2AX: 1 foci
[10]; 0.1 μM
  pH2AX: 1.3 foci
[10]; 0.3 μM
  pH2AX: 1.8 foci
[10]; 10 μM
  pH2AX: 3.1 foci
[10]; 30 μM
  pH2AX: 3.5 foci
